{"source": "patent US11926593B1", "about": "“6′-(3-bromophenyl)-2′-methoxy-3,4′-bipyridine-3′-carbonitrile as an antioxidant compound” (KING FAISAL UNIVERSITY, priority 2023, dated 2024)", "test": "DPPH radical scavenging antioxidant test", "type": "biochemical", "details": "517 nm; for Inhibition (radical scavenging inhibition): DPPH 0.2 mL (0.75 mM), compound 3 μM in ethanol, 30 minutes in the dark", "procedure": "The antioxidant activity of 6′-(3-bromophenyl)-2′-methoxy-3,4′-bipyridine-3′-carbonitrile was investigated by 2,2-diphenyl-1-picrylhydrazyl (DPPH) in vitro tests that employ vitamin C as the positive control.\nThe antioxidant properties of the 6′-(3-bromophenyl)-2′-methoxy-3,4′-bipyridine-3′-carbonitrile compound were studied by adding 0.2 mL DPPH (0.75 mM)) to 6′-(3-bromophenyl)-2′-methoxy-3,4′-bipyridine-3′-carbonitrile (3 μM) (4) in ethanol. After 30 minutes of incubation in the dark, the absorbance was read against a blank at 517 nm. Ascorbic acid (vitamin C) was used as standard antioxidants (positive control). A blank sample was prepared by 0.2 mL of DPPH in 3 mL ethanol. A negative control sample was run using ethanol instead of the sample. The radical scavenging inhibition was calculated using the following equation: […]\nThe antioxidant activity for the synthesized compound is listed in Table 1, using Vitamin C as a reference.", "data": [{"compound": "COc1nc(-c2cccc(Br)c2)cc(-c2cccnc2)c1C#N", "note": "[Product 4, 6′-(3-bromophenyl)-2′-methoxy-3,4′-bipyridine-3′-carbonitrile]", "values": [{"measurement": "Inhibition (radical scavenging inhibition)", "value": 50, "unit": "%"}, {"measurement": "antioxidant potential compared to vitamin C", "setting": "DPPH in vitro test, vitamin C as positive control", "value": "high potential as an antioxidant"}]}, {"compound": "O=C1O[C@H]([C@@H](O)CO)C(O)=C1O", "note": "[vit c, Ascorbic acid, reference compound]", "values": [{"measurement": "Inhibition (radical scavenging inhibition)", "value": 74, "unit": "%"}]}]}
